The source of these data is patent US10189859B2, “Derivatives of 6-(2,3-dichlorophenyl)-1,2,4-triazin-5-amine” (Nektar Therapeutics, priority 2013, dated 2019).

The structures appear in SMILES notation. “And” between values parts separate entries of the source, which are not always exact repeats. Identical values can stand only once. Counter-ions that a name gives are not always drawn. Like-named read-outs stand apart in the source and are kept apart here. Where only a bound is given, the exact number is not on record here.

In one data set the test system is AFP model. Kind of data set: AFP animal model. Format: in vivo. From the text: The efficacy of the compounds when evaluated in additional well-known animal models, AFP, RR, and hyperalgesia, was also explored.
Data set [1] has as its target Nav1.7 sodium channels (human SCN9A gene) (Homo sapiens (Human), UniProt Q15858). Nature of the data set: Automated patch clamp (IonWorks Barracuda) of Nav1.7 stably expressed in CHO cells. It is filed as cell-based. On the procedure:
The potencies of the compounds provided herein to block specific Na+ channels was measured using automated patch clamp electrophysiologically of Nav1.7 sodium channels (human SCN9A gene) stably expressed in CHO cells using the IonWorks™ Barracuda system. Currents were measured from the whole cell patch configuration. From a holding potential of −90 mV, membranes were subjected to a 200 ms pre-pulse to −120 mV, then pulsed to 0 mV to measure blockade of the tonic (resting) state. Inactivated state block was elicited by repolarization to −100 mV (20 ms pulse duration), followed by depolarization to 0 mV (20 ms pulse duration). Peak inward Na+ currents were measured in the presence of vehicle or various concentrations of the test compound to determine the percent block of current. Concentration-response relationships were used to calculate IC50 values for the illustrative compounds.

Data set [2] can be described thus: Pharmacokinetics after intravenous or oral dosing, plasma LC/MS/MS. The following applies: fasted male Sprague Dawley rats. Format: in vivo. The protocol:
Fasted, male Sprague Dawley rats were dosed intravenously or orally. Blood samples were collected at pre-determined time points and plasma was separated. Test article concentrations were determined in plasma by a LC/MS/MS method. Non compartmental analysis was performed to estimate the area under the plasma concentration vs. time curve (AUC). Clearance parameters (CL), bioavailabilities (F) and half-lives were calculated.

The mark [3] stands for this setting: AFP, Ph 2, timepoint 0.5 h, minimum effective dose.
[4] abbreviates: inactivated state block, CHO cells, read-out: Inactivated state IC50.
[5] abbreviates: tonic (resting) state block, CHO cells, read-out: Tonic state IC50.
[6] abbreviates: read-out: Inactivated state IC50.

Chain of Nav1.7 sodium channels (human SCN9A gene) (Q15858 whole entry): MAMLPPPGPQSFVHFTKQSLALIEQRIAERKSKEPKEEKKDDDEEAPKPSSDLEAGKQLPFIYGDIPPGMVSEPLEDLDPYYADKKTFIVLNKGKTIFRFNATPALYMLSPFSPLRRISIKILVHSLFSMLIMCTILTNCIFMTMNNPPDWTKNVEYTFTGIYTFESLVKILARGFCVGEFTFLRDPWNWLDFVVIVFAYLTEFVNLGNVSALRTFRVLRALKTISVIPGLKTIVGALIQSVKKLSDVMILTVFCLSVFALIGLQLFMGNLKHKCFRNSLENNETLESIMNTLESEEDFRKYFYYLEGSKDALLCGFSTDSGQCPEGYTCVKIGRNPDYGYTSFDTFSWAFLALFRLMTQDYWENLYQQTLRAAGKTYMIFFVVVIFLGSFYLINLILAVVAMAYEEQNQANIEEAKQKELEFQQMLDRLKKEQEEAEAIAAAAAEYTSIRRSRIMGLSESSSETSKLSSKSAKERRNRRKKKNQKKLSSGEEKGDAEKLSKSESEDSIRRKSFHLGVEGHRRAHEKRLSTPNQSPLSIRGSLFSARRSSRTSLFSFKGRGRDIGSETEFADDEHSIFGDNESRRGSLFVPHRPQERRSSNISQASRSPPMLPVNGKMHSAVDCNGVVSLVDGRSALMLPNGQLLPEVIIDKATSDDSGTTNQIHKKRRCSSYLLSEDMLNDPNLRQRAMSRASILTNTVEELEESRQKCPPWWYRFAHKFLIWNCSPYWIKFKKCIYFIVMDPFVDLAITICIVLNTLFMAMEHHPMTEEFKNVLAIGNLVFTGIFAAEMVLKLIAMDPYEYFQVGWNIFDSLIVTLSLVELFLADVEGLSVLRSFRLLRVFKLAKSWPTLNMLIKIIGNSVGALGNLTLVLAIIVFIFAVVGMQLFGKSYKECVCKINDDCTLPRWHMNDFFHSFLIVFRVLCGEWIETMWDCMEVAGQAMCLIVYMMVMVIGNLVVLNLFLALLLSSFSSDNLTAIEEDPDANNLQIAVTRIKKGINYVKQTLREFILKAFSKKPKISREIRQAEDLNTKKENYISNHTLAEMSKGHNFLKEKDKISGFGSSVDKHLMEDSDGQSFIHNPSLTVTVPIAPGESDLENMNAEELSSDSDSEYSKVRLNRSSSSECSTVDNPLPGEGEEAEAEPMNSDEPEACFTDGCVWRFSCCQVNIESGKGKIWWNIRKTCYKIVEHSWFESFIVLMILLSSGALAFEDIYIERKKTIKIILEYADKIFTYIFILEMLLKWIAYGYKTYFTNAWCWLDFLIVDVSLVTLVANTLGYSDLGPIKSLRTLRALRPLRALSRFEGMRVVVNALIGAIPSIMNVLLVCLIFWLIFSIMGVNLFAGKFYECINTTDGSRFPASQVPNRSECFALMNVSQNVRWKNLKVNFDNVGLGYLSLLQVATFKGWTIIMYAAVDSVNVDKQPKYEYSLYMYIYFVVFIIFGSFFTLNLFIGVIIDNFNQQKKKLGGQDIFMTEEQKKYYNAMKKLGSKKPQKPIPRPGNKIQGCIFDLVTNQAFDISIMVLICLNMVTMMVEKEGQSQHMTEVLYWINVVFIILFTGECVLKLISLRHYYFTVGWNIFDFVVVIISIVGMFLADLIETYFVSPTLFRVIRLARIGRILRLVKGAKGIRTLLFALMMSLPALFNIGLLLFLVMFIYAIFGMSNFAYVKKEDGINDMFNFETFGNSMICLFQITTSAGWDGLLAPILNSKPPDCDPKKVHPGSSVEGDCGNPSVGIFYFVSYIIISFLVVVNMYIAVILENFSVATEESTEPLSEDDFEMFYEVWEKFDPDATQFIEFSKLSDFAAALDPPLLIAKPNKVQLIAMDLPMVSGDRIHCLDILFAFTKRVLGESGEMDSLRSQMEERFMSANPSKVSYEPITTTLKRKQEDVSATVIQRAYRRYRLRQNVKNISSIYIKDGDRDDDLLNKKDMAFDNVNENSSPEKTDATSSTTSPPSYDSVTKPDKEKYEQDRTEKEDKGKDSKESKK

On to `CC(C)(CO)Nc1nnc(-c2cccc(Cl)c2Cl)c(N)n1` [Compound 1, 2-((5-amino-6-(2,3-dichlorophenyl)-1,2,4-triazin-3-yl)amino)-2-methylpropan-1-ol], for which the “MED (mg/kg)” value in the data set on AFP model (setting [3]) is on record as 450 (Ph 2) mg/kg. Besides, the ED50 (in general, the dose at which the effect has come halfway, by size or by number of responders) with AFP model (AFP, Ph 2, timepoint 0.5 h, read-out: ED50) was 589 mg/kg. In addition, the IC50 – broadly, the midpoint of a concentration-inhibition curve – in data set [1] (setting [4]) was 60.1 µM and < 50 µM; in data set [1] (setting [5]), > 200 µM and 197 µM.
For the compound `CCOC[C@H](O)CN1CCN(c2nnc(-c3cccc(Cl)c3Cl)c(N)n2)CC1` [Compound 55, (R)-1-(4-(5-Amino-6-(2,3-dichlorophenyl)-1,2,4-triazin-3-yl)piperazin-1-yl)-3-ethoxypropan-2-ol], in data set [2], the “exposure after oral dosing (qualitative ranking)” value (“exposure after oral dosing” below) was “best exposure after oral dosing”. The IC50 was 62.3 µM in data set [1] (setting [4]) and greater than 200 µM in data set [1] (setting [5]).
The matching figures for `CC(C)OC[C@H](O)CN1CCN(c2nnc(-c3cccc(Cl)c3Cl)c(N)n2)CC1` [Compound 73, (R)-1-(4-(5-Amino-6-(2,3-dichlorophenyl)-1,2,4-triazin-3-yl)piperazin-1-yl)-3-isopropoxypropan-2-ol]: “best exposure after oral dosing”, less than 50 µM and 179 µM.
The matching figures for `Nc1nc(N2CCNCC2)nnc1-c1cccc(Cl)c1Cl` [Compound 79, 6-(2,3-dichlorophenyl)-3-(piperazin-1-yl)-1,2,4-triazin-5-amine]: “best exposure after oral dosing”, 95.3 µM and greater than 200 µM.
The matching figures for `CC(CO)N1CCN(c2nnc(-c3cccc(Cl)c3Cl)c(N)n2)CC1` (centres unmarked) [Compound 89, 2-(4-(5-amino-6-(2,3-dichlorophenyl)-1,2,4-triazin-3-yl)piperazin-1-yl)propan-1-ol]: “best exposure after oral dosing”, 66.6 µM and greater than 200 µM.
Turning to `CC(C)(CO)N1CCN(c2nnc(-c3cccc(Cl)c3Cl)c(N)n2)CC1` [Compound 90, 2-(4-(5-amino-6-(2,3-dichlorophenyl)-1,2,4-triazin-3-yl)piperazin-1-yl)-2-methylpropan-1-ol], in data set [2], the “exposure after oral dosing” value is “best exposure after oral dosing”. Further, the IC50 is 56.2 µM in data set [1] (setting [6]) and 183 µM in data set [1] (read-out: Tonic state IC50).
As for `Nc1nc(N2CCN(CC(O)CO)CC2)nnc1-c1cccc(Cl)c1Cl` (centres unmarked) [Compound 92, 3-(4-(5-amino-6-(2,3-dichlorophenyl)-1,2,4-triazin-3-yl)piperazin-1-yl)propane-1,2-diol], the “exposure after oral dosing” value in data set [2] is given as “best exposure after oral dosing”. The IC50 was greater than 300 µM in data set [1] (setting [4]) and greater than 200 µM in data set [1] (setting [5]).
Consider `Cl.Cl.Nc1nc(N2CCN(C[C@H](O)COCC(F)(F)F)CC2)nnc1-c1cccc(Cl)c1Cl` [Compound 95, (S)-1-(4-(5-amino-6-(2,3-dichlorophenyl)-1,2,4-triazin-3-yl)-piperazin-1-yl)-3-(2,2,2-trifluoroethoxy)-propan-2-ol-2HCl], for which, in data set [2], the “pharmacokinetics (qualitative ranking of the compounds tested)” value (shortened to “pharmacokinetics”) is listed as “most favorable pharmacokinetics” and the “exposure after oral dosing” value is “best exposure after oral dosing”. For the same compound, in the data set with AFP model (AFP, Ph 1, timepoint 0.5 h, 500 mg/kg as 2 doses @ 250 mg/kg), the “MED (mg/kg)” value is recorded as 500 (Ph 1) mg/kg.
Take `COC[C@H](O)CN1CCN(c2nnc(-c3cccc(Cl)c3Cl)c(N)n2)CC1` [Compound 96, (R)-1-(4-(5-amino-6-(2,3-dichlorophenyl)-1,2,4-triazin-3-yl)piperazin-1-yl)-3-methoxypropan-2-ol]: in data set [2], the “pharmacokinetics” value is “most favorable pharmacokinetics” and the “exposure after oral dosing” value was “best exposure after oral dosing”. Also, in data set [1] (setting [6]), the IC50 is less than 50 µM. In addition, the IC50 in data set [1] (read-out: Tonic state IC50) is greater than 200 µM.
In the case of `COC[C@@H](O)CN1CCN(c2nnc(-c3cccc(Cl)c3Cl)c(N)n2)CC1` [Compound 98, (S)-1-(4-(5-amino-6-(2,3-dichlorophenyl)-1,2,4-triazin-3-yl)piperazin-1-yl)-3-methoxypropan-2-ol], the “exposure after oral dosing” value in data set [2] is listed as “best exposure after oral dosing”. The IC50 in data set [1] (setting [6]) was 57.5 µM and < 50 µM; in data set [1] (read-out: Tonic state IC50), greater than 200 µM.
Consider `Nc1nc(N2CCN3C(=O)OC[C@H]3C2)nnc1-c1cccc(Cl)c1Cl` [Compound 127, (R)-7-(5-amino-6-(2,3-dichlorophenyl)-1,2,4-triazin-3-yl)tetrahydro-1H-oxazolo[3,4-a]pyrazin-3(5H)-one], for which, in data set [2], the “pharmacokinetics” value is listed as “most favorable pharmacokinetics” and the “exposure after oral dosing” value is on record as “best exposure after oral dosing”. For the same compound, the IC50 in data set [1] (setting [6]) was greater than 300 µM. The IC50 in data set [1] (read-out: Tonic state IC50) was greater than 200 µM.
The matching figures for `Nc1nc(N2CCN3C(=O)OC[C@@H]3C2)nnc1-c1cccc(Cl)c1Cl` [Compound 128, (S)-7-(5-amino-6-(2,3-dichlorophenyl)-1,2,4-triazin-3-yl)tetrahydro-1H-oxazolo[3,4-a]pyrazin-3(5H)-one HCl salt]: “most favorable pharmacokinetics”, “best exposure after oral dosing”, greater than 300 µM and greater than 200 µM.
Consider `Nc1nc(N2CCN3C(=O)COC[C@H]3C2)nnc1-c1cccc(Cl)c1Cl` [Compound 130, (R)-8-(5-amino-6-(2,3-dichlorophenyl)-1,2,4-triazin-3-yl)hexahydropyrazino[2,1-c][1,4]oxazin-4(3H)-one HCl salt], for which the “pharmacokinetics” value in data set [2] is on record as “most favorable pharmacokinetics”. Besides, the “exposure after oral dosing” value in data set [2] is listed as “best exposure after oral dosing”. Besides, the IC50 in data set [1] (setting [6]) is 204 µM; in data set [1] (read-out: Tonic state IC50) it was greater than 200 µM.
`Nc1nc(NCCOCCOCCOC(F)(F)F)nnc1-c1cccc(Cl)c1Cl` [Compound 167, 6-(2,3-dichlorophenyl)-N^3-(2-(2-(2-(trifluoromethoxy)ethoxy)ethoxy)ethyl)-1,2,4-triazine-3,5-diamine]: the “MED” value in the data set on AFP model (AFP, +ABT, timepoint 0.5 h, minimum effective dose) is 100 mg/kg. In addition, the IC50 in data set [1] (setting [4]) is less than 50 µM; in data set [1] (setting [5]), 108 µM and 91.5 µM and 130 µM.
As to `COCCOCCOCC(C)Nc1nnc(-c2cccc(Cl)c2Cl)c(N)n1` (centres unmarked) [Compound 188, 6-(2,3-dichlorophenyl)-N3-(1-(2-(2-methoxyethoxy)ethoxy)propan-2-yl)-1,2,4-triazine-3,5-diamine.HCl], the “exposure after oral dosing” value in data set [2] is on record as “best exposure after oral dosing”.
Take `Nc1nc(N2CCN(CCO)CC2)nnc1-c1cccc(Cl)c1Cl` [Compound 200, 2-(4-(5-amino-6-(2,3-dichlorophenyl)-1,2,4-triazin-3-yl)piperazin-1-yl)ethanol]: the “exposure after oral dosing” value in data set [2] was “best exposure after oral dosing”. In addition, the IC50 was 120 µM in data set [1] (setting [4]) and greater than 200 µM in data set [1] (setting [5]).
The matching figures for `Nc1nc(N2CCN(CCOCCO)CC2)nnc1-c1cccc(Cl)c1Cl` [Compound 201, 2-(2-(4-(5-amino-6-(2,3-dichlorophenyl)-1,2,4-triazin-3-yl)piperazin-1-yl)ethoxy)ethanol]: “best exposure after oral dosing”, 202 µM and greater than 200 µM.
Regarding `CS(=O)(=O)CCN1CCN(c2nnc(-c3cccc(Cl)c3Cl)c(N)n2)CC1` [Compound 202, 6-(2,3-dichlorophenyl)-3-(4-(2-(methylsulfonyl)ethyl)piperazin-1-yl)-1,2,4-triazin-5-amine], in data set [2], the “exposure after oral dosing” value is “best exposure after oral dosing”. Besides, the values for the IC50 in data set [1] (setting [6]) and in data set [1] (read-out: Tonic state IC50) were greater than 300 µM and greater than 200 µM, respectively.
For `Nc1nc(N2CCN(C[C@H](O)CCl)CC2)nnc1-c1cccc(Cl)c1Cl` [Compound 207, (S)-1-(4-(5-amino-6-(2,3-dichlorophenyl)-1,2,4-triazin-3-yl)piperazin-1-yl)-3-chloropropan-2-ol], the “exposure after oral dosing” value in data set [2] was “best exposure after oral dosing”. In the data set on AFP model (0.5 h), the 50% effect level (ED50) was put at a dose of 476 mg/kg. Also, the “MED (mg/kg)” value in the data set on AFP model (setting [3]) is given as 300 (Ph 2) mg/kg. Further, the IC50 was 107 µM and 133 µM in data set [1] (setting [4]); greater than 200 µM in data set [1] (setting [5]).
